Reference: PubChem BioAssay AID1648 (Sanford-Burnham Center for Chemical Genomics, 2009)
Activity calls are given as the source filed them. The rule behind the calls is not given here.

Target: Serine/threonine-protein kinase mTOR (Homo sapiens) (UniProt P42345)
Assay: mTOR FRB domain ligand binding – biophysical, NMR (AID 1648)
Conditions: NMR binding to FRB domain, chemical shift

Serine/threonine-protein kinase mTOR (Homo sapiens), sequence (P42345 2015-2114): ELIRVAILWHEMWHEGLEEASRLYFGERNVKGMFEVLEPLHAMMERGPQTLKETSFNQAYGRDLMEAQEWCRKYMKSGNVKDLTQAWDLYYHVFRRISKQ

How did the Kd turn out when O=C(NN=C1CCCC1)c1ccncc1 was run?
Its Kd is > 4 mM (inactive).

Which Kd does the source give for CCC(C)C(NC)C(=O)O (stereo not drawn) here?
The Kd was > 4 mM (inactive).

With CCC(CCC(C)[C@H]1CCC2C3CC=C4C[C@@H](O)CC[C@]4(C)C3CC[C@@]21C)C(C)C (stereo partly drawn) as the molecule, how does the Kd read?
Its Kd is > 4 mM (inactive).

How did the Kd turn out when O=c1[nH]c(CN2CCN(CCO)CC2)nc2ccccc12 was run?
The Kd was > 4 mM (inactive).

With Cc1cc(C(=O)NCc2cccnc2)no1 as the molecule, how does the Kd read?
Its Kd is > 4 mM (inactive).

Which Kd does the source give for Cc1ccccc1NC(=O)c1ocnc1C here?
The Kd was > 4 mM (inactive).

For O=C(O)CNc1ncnc2nc[nH]c12, which Kd is on record?
The Kd was > 4 mM (inactive).

Which Kd does the source give for O=C(NC1=NCCS1)c1ccc2snnc2c1 here?
Its Kd is > 4 mM (inactive).

How did the Kd turn out when COc1ccc(-c2noc(-c3ccco3)n2)cc1OC was run?
Its Kd is > 4 mM (inactive).

For OCCNC(=S)Nc1ccccc1, which Kd is on record?
Its Kd is > 4 mM (inactive).

OCC1COc2ccccc2O1 (stereo not drawn) was tested. Which Kd did it give?
The Kd was > 4 mM (inactive).

CCc1ccc(/C=N/n2cnnc2)cc1 was tested. Which Kd did it give?
The Kd was > 4 mM (inactive).

For Cc1nn(CC(=O)Nc2ccccn2)c(=O)c2ccccc12, which Kd is on record?
Its Kd is > 4 mM (inactive).

With N[C@@H](CCC(=O)N[C@@H](CS)C(=O)NCC(=O)O)C(=O)O as the molecule, how does the Kd read?
The Kd was > 4 mM (inactive).

For c1cc2n(c1)CCNC2c1ccncc1 (stereo not drawn), which Kd is on record?
Its Kd is > 4 mM (inactive).

How did the Kd turn out when Cc1ccc(-c2c(C)n([O-])c3c([n+]2=O)CCCC3)o1 was run?
Its Kd is > 4 mM (inactive).

For O=C(c1cc(-c2ccccc2)on1)N1CCCC1, which Kd is on record?
The Kd was > 4 mM (inactive).

How did the Kd turn out when Cc1cc(=O)n2[nH]c(C)cc2n1 was run?
Its Kd is > 4 mM (inactive).

Which Kd does the source give for Cc1ccc(C(=O)N2CC(=O)NC(=O)C2)cc1 here?
The Kd was > 4 mM (inactive).

For NC(=O)CSc1ccccn1, which Kd is on record?
Its Kd is > 4 mM (inactive).

Which Kd does the source give for CC12CN3CC(C)(CN(C1)C3c1cccs1)C2O (stereo not drawn) here?
Its Kd is > 4 mM (inactive).

Which Kd does the source give for O=C(O)c1cccc(CSc2ncccn2)c1 here?
The Kd was > 4 mM (inactive).

Cc1nc2ccccc2c(=O)n1CCCO was tested. Which Kd did it give?
The Kd was > 4 mM (inactive).

How did the Kd turn out when COC(=O)c1c(C)c2c(c(C)c1O)OC(=O)c1c(C)c(Cl)c(O)c(Cl)c1O2 was run?
The Kd was > 4 mM (inactive).

With NCc1oc(-c2ccccc2)cc1C(=O)O as the molecule, how does the Kd read?
The Kd was > 4 mM (inactive).

For Cn1c(SCc2ccon2)nc2ccccc2c1=O, which Kd is on record?
Its Kd is > 4 mM (inactive).

Which Kd does the source give for C=CCc1ccc(O)c(OC)c1 here?
The Kd was > 4 mM (inactive).

For COc1cc2c(cc1OC)-c1nnnn1C(C)(C)C2, which Kd is on record?
Its Kd is > 4 mM (inactive).

Nc1ncnc(NCCOCCO)c1[N+](=O)[O-] was tested. Which Kd did it give?
Its Kd is > 4 mM (inactive).

For CC(=O)c1ccc(NC(=O)c2ocnc2C)cc1, which Kd is on record?
The Kd was > 4 mM (inactive).

COc1cc(C(C)=O)ccc1OCC(O)Cn1ccnc1 (stereo not drawn) was tested. Which Kd did it give?
The Kd was > 4 mM (inactive).

For Fc1ccc(N2CCNCC2)cc1, which Kd is on record?
The Kd was > 4 mM (inactive).

With Fc1ccc2onc(C3CCNCC3)c2c1 as the molecule, how does the Kd read?
Its Kd is > 4 mM (inactive).

For Brc1ccc(-c2nc(-c3ccncc3)no2)o1, which Kd is on record?
Its Kd is > 4 mM (inactive).

Which Kd does the source give for C#CCCCCCCCCCCCC(O)CC(O)COC(C)=O (stereo not drawn) here?
Its Kd is > 4 mM (inactive).

Which Kd does the source give for Cc1ccccc1NC(=O)CC1SC(N)=NC1=O (stereo not drawn) here?
Its Kd is > 4 mM (inactive).

How did the Kd turn out when Cn1c(O)c(C2=NC(=S)NC2=O)c2ccccc21 was run?
Its Kd is > 4 mM (inactive).

With CN1CCCCC1c1ccc(-c2cccnc2)nc1 (stereo not drawn) as the molecule, how does the Kd read?
Its Kd is > 4 mM (inactive).

For O=C(O)C1CCN(C(=O)c2cccs2)CC1, which Kd is on record?
Its Kd is > 4 mM (inactive).

With OCc1c[nH]c2ccccc12 as the molecule, how does the Kd read?
The Kd was > 4 mM (inactive).

With Cc1nnc2n(c1=O)N=C(c1ccccc1)CS2 as the molecule, how does the Kd read?
Its Kd is > 4 mM (inactive).

How did the Kd turn out when CNS(=O)(=O)c1cccs1 was run?
The Kd was > 4 mM (inactive).

For CCOC(=O)c1c(C)nc2ncccn12, which Kd is on record?
The Kd was > 4 mM (inactive).

How did the Kd turn out when COc1cc2c(cc1OC)-c1cc3ccc(OC)c(OC)c3c[n+]1CC2 was run?
Its Kd is > 4 mM (inactive).

With O=C(OC[C@H]1O[C@H](OC(=O)c2cc(O)c(O)c(OC(=O)c3cc(O)c(O)c(O)c3)c2)[C@H](OC(=O)c2cc(O)c(O)c(OC(=O)c3cc(O)c(O)c(O)c3)c2)[C@@H](OC(=O)c2cc(O)c(O)c(OC(=O)c3cc(O)c(O)c(O)c3)c2)[C@@H]1OC(=O)c1cc(O)c(O)c(OC(=O)c2cc(O)c(O)c(O)c2)c1)c1cc(O)c(O)c(OC(=O)c2cc(O)c(O)c(O)c2)c1 as the molecule, how does the Kd read?
Its Kd is > 4 mM (inactive).

For O=C(O)Cn1nnnc1-c1ccc(F)cc1, which Kd is on record?
Its Kd is > 4 mM (inactive).

With CCSc1nc(=S)n(CC)c(C)c1C(C)=O as the molecule, how does the Kd read?
Its Kd is > 4 mM (inactive).

How did the Kd turn out when C[C@H](CCC(=O)O)[C@H]1CCC2C3C(CC[C@@]21C)[C@@]1(C)CC[C@@H](O)C[C@H]1C[C@H]3O (stereo partly drawn) was run?
The Kd was > 4 mM (inactive).

Which Kd does the source give for CC1(C)Cn2c(nnc2-c2ccccc2)S1 here?
The Kd was > 4 mM (inactive).

How did the Kd turn out when COc1ccc2c(C)cc(=O)oc2c1 was run?
Its Kd is > 4 mM (inactive).

For CNc1nnc(Cc2csc(N)n2)s1, which Kd is on record?
The Kd was > 4 mM (inactive).

With Cc1ccccc1NC(=O)/C=C\C(N)=O as the molecule, how does the Kd read?
The Kd was > 4 mM (inactive).

COc1cc(C)c(S(=O)(=O)N2CCN(C)CC2)cc1C was tested. Which Kd did it give?
Its Kd is > 4 mM (inactive).

CC(=O)Cc1nsc(NC(=O)c2ccc(C)cc2)n1 was tested. Which Kd did it give?
Its Kd is > 4 mM (inactive).

Cc1[nH]c2ccccc2c(=O)c1CO was tested. Which Kd did it give?
The Kd was > 4 mM (inactive).

Which Kd does the source give for C=C1CCC2C(CC2(C)C)C(=O)CCC1O (stereo not drawn) here?
Its Kd is > 4 mM (inactive).

How did the Kd turn out when CC(=O)O[C@H]1CC[C@]2(C)C3CC[C@@]4(C)C(CC5O[C@@]6(CCC(C)CO6)[C@@H](C)C54)C3CC[C@@H]2C1 (stereo partly drawn) was run?
Its Kd is > 4 mM (inactive).

With Cc1sc(N)c(C(N)=O)c1C as the molecule, how does the Kd read?
The Kd was > 4 mM (inactive).
